For eight compounds, IC50 and ED30 results are on record in patent US5639780A, “N-benzyl indol-3-yl butanoic acid derivatives as cyclooxygenase inhibitors” (priority 1995, dated 1997).

As a reminder, the IC50 is the concentration that inhibits the measured activity by half.

The target in assay [1] is T1, cyclooxygenase-2 (human osteosarcoma 143 cells) (Homo sapiens, UniProt P35354).
T1 construct: human osteosarcoma 143 cells (which specifically express cyclooxygenase-2); endogenous in cells; host or cells: human osteosarcoma 143 cells
T1 sequence (P35354 18-604): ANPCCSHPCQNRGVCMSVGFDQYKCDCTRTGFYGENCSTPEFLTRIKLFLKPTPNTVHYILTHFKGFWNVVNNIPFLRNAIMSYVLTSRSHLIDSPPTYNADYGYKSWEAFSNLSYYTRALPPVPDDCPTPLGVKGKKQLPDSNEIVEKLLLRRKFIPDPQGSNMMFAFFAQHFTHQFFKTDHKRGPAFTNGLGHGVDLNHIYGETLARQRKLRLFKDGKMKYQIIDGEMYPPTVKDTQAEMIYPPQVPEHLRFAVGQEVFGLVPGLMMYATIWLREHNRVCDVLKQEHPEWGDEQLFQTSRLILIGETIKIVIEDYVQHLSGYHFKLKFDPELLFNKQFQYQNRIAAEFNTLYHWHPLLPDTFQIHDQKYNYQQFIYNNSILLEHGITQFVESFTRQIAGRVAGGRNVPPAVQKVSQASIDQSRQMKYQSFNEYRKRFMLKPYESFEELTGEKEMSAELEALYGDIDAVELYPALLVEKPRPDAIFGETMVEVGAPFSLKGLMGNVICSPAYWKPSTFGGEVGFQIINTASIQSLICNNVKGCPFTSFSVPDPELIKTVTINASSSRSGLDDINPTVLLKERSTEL
As to the kind of experiment: Inhibition of cyclooxygenase-2: PGE2 production in human osteosarcoma 143 cells, whole cell assay. In kind it is cell-based.

For assay [2], the target named is T2, cyclooxygenase-1 (human U-937 cells) (Homo sapiens, UniProt P23219).
T2 construct: human U-937 cells (which specifically express cyclooxygenase-1); endogenous in cells; host or cells: human U-937 cells
Put plainly: Inhibition of cyclooxygenase-1: PGE2 production in human U-937 cells, whole cell assay. In kind it is cell-based. To be noted: PGE2 synthesis in response to arachidonic acid, read-out: Cox-1 IC50.

In the next assay the test system is rat paw edema. As to the kind of experiment: Rat Paw Edema Assay (carrageenan), edema inhibition. In kind it is in vivo, Male Sprague-Dawley rats. The settings on record: po 1 hr before carrageenan, paw volume at 3 hr. The procedure:
Rat Paw Edema Assay-Protocol
Male Sprague-Dawley rats (150-200 g) are fasted overnight and are given po either vehicle (1% methocel or 5% Tween 80) or a test compound. One hr later, a line is drawn using a permanent marker at the level above the ankle in one hind paw to define the area of the paw to be monitored. The paw volume (V0) is measured using a plethysmometer (Ugo-Basile, Italy) based on the principle of water displacement. The animals are then injected subplantarly with […] of 1% carrageenan solution in saline (FMC Corp, Maine) into the paw using an insulin syringe with a 25-gauge needle (i.e., […] carrageenan per paw). Three hr later, the paw volume (V3) is measured and the increases in paw volume (V3 -V0) are calculated. The animals are sacrificed by CO2 asphyxiation and the absence or presence of stomach lesions scored. Data is compared with the vehicle-control values and percent inhibition calculated. All treatment groups are coded to eliminate observer bias.

Where [3] appears, read: human osteosarcoma 143 cells, whole cell, PGE2 synthesis in response to arachidonic acid, read-out: Cox-2 IC50.

Counter-ions that a name gives are not always drawn. Like-named read-outs stand apart in the source and are kept apart here. Bounds are passed on as bounds.

T2 sequence (P23219 24-599): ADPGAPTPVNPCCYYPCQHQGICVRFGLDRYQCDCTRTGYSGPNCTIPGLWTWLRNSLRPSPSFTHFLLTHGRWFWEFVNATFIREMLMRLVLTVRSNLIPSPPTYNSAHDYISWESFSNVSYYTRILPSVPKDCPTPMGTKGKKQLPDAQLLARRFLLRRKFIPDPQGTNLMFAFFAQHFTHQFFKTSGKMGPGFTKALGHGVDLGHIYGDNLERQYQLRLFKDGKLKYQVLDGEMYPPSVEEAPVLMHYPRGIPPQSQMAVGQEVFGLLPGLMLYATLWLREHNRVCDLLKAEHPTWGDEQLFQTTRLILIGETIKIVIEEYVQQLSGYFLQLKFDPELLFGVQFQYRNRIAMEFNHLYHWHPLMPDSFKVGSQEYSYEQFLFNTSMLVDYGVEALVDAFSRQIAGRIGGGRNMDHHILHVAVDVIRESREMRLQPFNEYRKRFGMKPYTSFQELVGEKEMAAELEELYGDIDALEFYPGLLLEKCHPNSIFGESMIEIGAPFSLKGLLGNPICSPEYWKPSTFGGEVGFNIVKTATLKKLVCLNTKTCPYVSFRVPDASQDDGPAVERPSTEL

Regarding `COc1ccc2c(c1)c(CCCC(=O)O)c(C)n2Cc1ccc(Br)cc1` [Example 4, 4-(1-(4-Bromobenzyl)-5-methoxy-2-methyl-1H-indol-3-yl)butanoic acid], the results for the concentration for half-maximal inhibition (IC50) in assay [1] (setting [3]) and in assay [2] were 6 nM and more than 10 µM, respectively. In the assay with rat paw edema, this compound registered an ED30 of 1.2 mg/kg.
For `COc1ccc2c(c1)c(CC1(CC(=O)O)CC1)c(C)n2Cc1ccc(Cl)cc1` [Example 25, 4-[1-(4-Chlorobenzyl)-5-methoxy-2-methyl-1H-indol-3-yl]-3-(ethane-1,2-diyl)butanoic acid], the IC50 in assay [1] (setting [3]) is 9 nM; in assay [2], more than 25 µM. Further, the ED30 with rat paw edema is more than 3 mg/kg.
Compound `COc1ccc2c(c1)c(CC(=O)O)c(C)n2C(=O)c1ccc(Cl)cc1` [Indomethacin, reference compound] showed an ED30 in the assay with rat paw edema of 0.9 mg/kg.
Regarding `COc1ccc2c(c1)c(CC1(CC(=O)O)CC1)c(C)n2Cc1ccc(Br)cc1` [Example 2, [4-(1-(4-Bromobenzyl) -5-methoxy-2-methyl-1 H-indol-3-yl) -3-(ethane-1,2-diyl)]butanoic acid, sodium salt], the half-maximal inhibitory concentration (IC50) in assay [1] is 16 nM; in assay [2] it was more than 100 µM. In the assay on rat paw edema, the ED30 amounted to 0.54 mg/kg.
As to `COc1ccc2c(c1)c(C[C@@H](C)CC(=O)O)c(C)n2Cc1ccc(Br)cc1` [Example 8, (3R) 4-(1-(4-Bromobenzyl)-5-methoxy-2-methyl-1H-indol-3-yl)-3-methylbutanoic ac id], the half-inhibitory concentration (IC50) in assay [2] is more than 10 µM. In the assay on rat paw edema, the ED30 stood at 0.6 mg/kg.
The compound `COc1ccc2c(c1)c(C(C)C(=O)O)c(C)n2Cc1ccc(Cl)cc1` (stereo not shown) [MK-555, a-(1-p-chlorobenzyl-2-methyl-5-methoxy-3-indolyl)propionic acid, reference compound] showed an ED30 in the assay with rat paw edema of 3 mg/kg.
Turning to `Cc1c(CC(C)CC(=O)O)c2cc(Cl)ccc2n1Cc1ccc(Br)cc1` (racemic) [Example 34, 4-[1-(4-Bromobenzyl)-5-chloro-2-methyl-1 H-indol-3-yl]-3-methyl-butanoic acid], the IC50 in assay [1] (setting [3]) was 5 nM; in assay [2], more than 10 µM. In addition, the ED30 in the assay on rat paw edema turned out to be 0.51 mg/kg.
The like results for `Cc1c(CCCC(=O)O)c2cc(Br)ccc2n1Cc1ccc(Br)cc1` [Example 24, 4-[5-Bromo-1-(4-bromobenzyl)-2-methyl-1H-indol-3-yl]butanoic acid] were, in that order, 6 nM, more than 50 µM and approximately 3 mg/kg.
